# Assays:
# Assay in all cases: competitive radioligand binding
# 5-HT2C receptor = biological target: T1, 5-HT2C receptor (Homo sapiens, UniProt P28335)
# T1 sequence (P28335 33-458): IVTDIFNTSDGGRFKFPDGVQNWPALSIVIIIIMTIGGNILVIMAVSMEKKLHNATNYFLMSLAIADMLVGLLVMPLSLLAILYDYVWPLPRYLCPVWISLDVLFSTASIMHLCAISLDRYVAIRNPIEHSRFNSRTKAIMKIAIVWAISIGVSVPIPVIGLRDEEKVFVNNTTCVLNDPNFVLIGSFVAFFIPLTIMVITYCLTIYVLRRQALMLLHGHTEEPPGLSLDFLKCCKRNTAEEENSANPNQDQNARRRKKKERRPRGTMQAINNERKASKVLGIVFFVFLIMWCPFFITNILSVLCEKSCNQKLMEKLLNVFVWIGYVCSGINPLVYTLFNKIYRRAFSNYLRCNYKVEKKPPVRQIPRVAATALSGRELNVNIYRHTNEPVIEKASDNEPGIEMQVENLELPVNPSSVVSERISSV
# sigma-1 receptor = biological target: sigma-1 receptor
# 5-HT2B receptor = 5-HT2B receptor (Homo sapiens, UniProt P41595)
# 5-HT2B receptor, sequence (P41595 whole entry): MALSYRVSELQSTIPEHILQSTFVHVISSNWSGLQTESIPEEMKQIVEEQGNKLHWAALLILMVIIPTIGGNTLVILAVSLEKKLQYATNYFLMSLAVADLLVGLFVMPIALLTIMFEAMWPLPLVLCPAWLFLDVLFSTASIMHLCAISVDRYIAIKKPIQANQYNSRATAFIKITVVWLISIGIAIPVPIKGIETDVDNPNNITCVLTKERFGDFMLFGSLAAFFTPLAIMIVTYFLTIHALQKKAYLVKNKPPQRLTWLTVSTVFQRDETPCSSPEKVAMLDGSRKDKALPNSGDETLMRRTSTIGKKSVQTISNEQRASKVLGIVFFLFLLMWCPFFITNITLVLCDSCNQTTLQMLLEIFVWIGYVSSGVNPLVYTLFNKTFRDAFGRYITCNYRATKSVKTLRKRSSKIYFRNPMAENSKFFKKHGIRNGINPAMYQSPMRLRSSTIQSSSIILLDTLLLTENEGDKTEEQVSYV
compound,measurement,setting,value
"CN[C@@H](C)C(=O)c1ccc(C)cc1 [S-MEPH, S-mephedrone]",Ki,5-HT2C receptor,3900 nM
same,Ki,sigma-1 receptor,1500 nM
same,Ki,5-HT2B receptor,857 nM

# From publication PMC5548612 (Drug and alcohol dependence, 2017)
